Counter-ions that a name gives are not always drawn.
target: SMYD3 (Homo sapiens (Human), UniProt Q9H7B4); assay: SMYD3 biochemical assay (SMYD3 enzyme assay on MEKK2 protein substrate, 3H-SAM scintillation proximity assay); settings: Table 1A; average of n = 1 to n = 50; read-out: SMYD3 Biochem IC50
In short: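 Native full-length human SMYD3, expressed in E. coli, was preincubated with compound for 30 min at room temperature in 25 mM Tris-Cl pH 8.0, 1 mM TCEP, 0.005% BSG and 0.005% Tween 20. ³H-SAM plus GST-MEKK2 then started the reaction. It was stopped with unlabeled SAM (100 uM final), and methylated MEKK2 was read by SPA.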

SMYD3, sequence (Q9H7B4 whole entry): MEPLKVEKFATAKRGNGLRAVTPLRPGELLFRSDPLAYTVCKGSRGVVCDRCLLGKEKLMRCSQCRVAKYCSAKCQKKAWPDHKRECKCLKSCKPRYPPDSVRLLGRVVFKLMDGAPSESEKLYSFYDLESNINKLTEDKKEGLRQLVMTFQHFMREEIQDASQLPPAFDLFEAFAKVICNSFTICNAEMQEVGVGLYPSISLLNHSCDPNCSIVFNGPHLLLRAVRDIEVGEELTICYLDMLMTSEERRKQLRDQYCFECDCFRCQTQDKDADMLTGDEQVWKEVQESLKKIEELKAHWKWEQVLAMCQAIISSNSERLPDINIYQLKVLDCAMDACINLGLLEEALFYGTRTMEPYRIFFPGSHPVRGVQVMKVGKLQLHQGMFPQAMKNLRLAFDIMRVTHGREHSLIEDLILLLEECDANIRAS

Structure (SMILES) | IC50
N[C@H]1CC[C@H](NC(=O)c2cnc3ncccn23)CC1 [compound 574, N-((1r,4r)-4-aminocyclohexyl)imidazo[1,2-a]pyrimidine-3-carboxamide] | > 10 µM
CCc1nc(C(=O)N[C@H]2CC[C@H](N)CC2)n[nH]1 [compound 535, N-((1r,4r)-4-aminocyclohexyl)-5-ethyl-1H-1,2,4-triazole-3-carboxamide] | > 50 µM
C[C@H]1C[C@@H](NC(=O)c2ccccc2)CCN1S(=O)(=O)CCCN (stereo in doubt) [compound 570, (±)-cis-N-(1-((3-aminopropyl)sulfonyl)-2-methylpiperidin-4-yl)benzamide] | > 10 µM
C[C@@H]1C[C@@H](NC(=O)c2ccccc2)CCN1S(=O)(=O)CCCN (racemic) [compound 563, (±)-trans-N-(1-((3-aminopropyl)sulfonyl)-2-methylpiperidin-4-yl)benzamide] | > 10 µM
NCCC(=O)N[C@H]1CC[C@H](NC(=O)c2n[nH]c(=O)[nH]2)CC1 [compound 530, N-((1r,4r)-4-(3-aminopropanamido)cyclohexyl)-5-oxo-4,5-dihydro-1H-1,2,4-triazole-3-carboxamide] | > 50 µM
Nc1nc(C(=O)N[C@H]2CC[C@H](N)CC2)c[nH]1 [compound 572, 2-amino-N-((1r,4r)-4-aminocyclohexyl)-1H-imidazole-4-carboxamide] | > 10 µM
Cc1[nH]cnc1C(=O)N[C@H]1CC[C@H](N)CC1 [compound 542, N-((1r,4r)-4-aminocyclohexyl)-5-methyl-1H-imidazole-4-carboxamide] | > 50 µM

same assay, conditions: read-out: SMYD3 Biochem IC50

IC50 | Structure (SMILES)
> 100 µM | CC(NC(=O)c1nccnc1N)C1CCN(C(=O)[C@H](C)N)CC1 (stereo partly drawn) [compound 188, N-(1-(1-(L-alanyl)piperidin-4-yl)ethyl)-3-aminopyrazine-2-carboxamide]
10.6 µM | Cc1cnc(C(=O)NC(C)C2CCN(C(=O)[C@H](C)N)CC2)s1 (stereo partly drawn) [compound 396, N-(1-(1-(L-alanyl)piperidin-4-yl)ethyl)-5-methylthiazole-2-carboxamide]
> 100 µM | Cn1ncnc1C(=O)N[C@H]1CC[C@H](N)CC1 [compound 507, N-((1r,4r)-4-aminocyclohexyl)-1-methyl-1H-1,2,4-triazole-5-carboxamide]
> 100 µM | Cn1ccnc1C(=O)N[C@H]1CC[C@H](N)CC1 [compound 337, N-((1r,4r)-4-aminocyclohexyl)-1-methyl-1H-imidazole-2-carboxamide]
77.9 µM | CC(NC(=O)c1cc2cc(Cl)ccc2[nH]1)C1CCN(C(=O)[C@H](C)N)CC1 (stereo partly drawn) [compound 229, N-(1-(1-(L-alanyl)piperidin-4-yl)ethyl)-5-chloro-1H-indole-2-carboxamide]
> 100 µM | Cc1cc(C(=O)NC(C)C2CCN(C(=O)[C@H](C)N)CC2)ccn1 (stereo partly drawn) [compound 392, N-(1-(1-(L-alanyl)piperidin-4-yl)ethyl)-2-methylisonicotinamide]
> 100 µM | CC(NC(=O)c1cc[n+]([O-])cc1)C1CCN(C(=O)[C@H](C)N)CC1 (stereo partly drawn) [compound 209, 4-((1-(1-(L-alanyl)piperidin-4-yl)ethyl)carbamoyl)pyridine 1-oxide]
> 100 µM | CC(NC(=O)c1cn2ncccc2n1)C1CCN(C(=O)[C@H](C)N)CC1 (stereo partly drawn) [compound 445, N-(1-(1-(L-alanyl)piperidin-4-yl)ethyl)imidazo[1,2-b]pyridazine-2-carboxamide]
> 100 µM | NCCC(=O)N[C@H]1CC[C@H](NC(=O)c2cccc(N)n2)CC1 [compound 385, 6-amino-N-((1r,4r)-4-(3-aminopropanamido)cyclohexyl)picolinamide]
> 100 µM | NCCC(=O)N[C@H]1CC[C@H](NC(=O)CCCn2ccnc2)CC1 [compound 375, N-((1r,4r)-4-(3-aminopropanamido)cyclohexyl)-4-(1H-imidazol-1-yl)butanamide]
> 100 µM | NCCC(=O)N[C@H]1CC[C@H](NC(=O)c2cncnc2N)CC1 [compound 420, 4-amino-N-((1r,4r)-4-(3-aminopropanamido)cyclohexyl)pyrimidine-5-carboxamide]
> 100 µM | Cn1ncc2ccc(C(=O)N[C@H]3CC[C@H](NC(=O)CCN)CC3)cc21 [compound 325, N-((1r,4r)-4-(3-aminopropanamido)cyclohexyl)-1-methyl-1H-indazole-6-carboxamide]
29 µM | NCCC(=O)N[C@H]1CC[C@H](NC(=O)c2ccc3ncsc3c2)CC1 [compound 281, N-((1r,4r)-4-(3-aminopropanamido)cyclohexyl)benzo[d]thiazole-6-carboxamide]
> 100 µM | CC(NC(=O)Cc1c[nH]c2cccnc12)C1CCN(C(=O)[C@H](C)N)CC1 (stereo partly drawn) [compound 406, N-(1-(1-(L-alanyl)piperidin-4-yl)ethyl)-2-(1H-pyrrolo[3,2-b]pyridin-3-yl)acetamide]

More lines, now with the values behind:

Structure (SMILES) | IC50
Nc1ccnc2ccc(C(=O)N[C@H]3CC[C@H](N)CC3)cc12 [compound 211, 4-amino-N-((1r,4r)-4-aminocyclohexyl)quinoline-6-carboxamide] | 43.7 µM
O=C1Cc2cc(C(=O)NC[C@@H]3CCNC3)ccc2N1 [compound 213, (R)-2-oxo-N-(pyrrolidin-3-ylmethyl)indoline-5-carboxamide] | 17.9 µM
N[C@H]1CC[C@H](NC(=O)/C=C/c2c[nH]cn2)CC1 [compound 495, (E)-N-((1r,4r)-4-aminocyclohexyl)-3-(1H-imidazol-4-yl)acrylamide] | > 100 µM
NS(=O)(=O)c1ccc(C(=O)N[C@H]2CC[C@H](N)CC2)cc1 [compound 190, N-((1r,4r)-4-aminocyclohexyl)-4-sulfamoylbenzamide] | > 100 µM
Cc1nc2ccccc2c(C(=O)N[C@H]2CC[C@H](N)CC2)c1N [compound 458, 3-amino-N-((1r,4r)-4-aminocyclohexyl)-2-methylquinoline-4-carboxamide] | > 100 µM
N[C@H]1CC[C@H](NC(=O)c2ccc(O)nn2)CC1 [compound 271, N-((1r,4r)-4-aminocyclohexyl)-6-hydroxypyridazine-3-carboxamide] | > 100 µM
CN(C(=O)CN)C1CCC(NC(=O)c2ccc3c(c2)CC(=O)N3)CC1 (stereo not drawn) [compound 214, N-(4-(2-amino-N-methylacetamido)cyclohexyl)-2-oxoindoline-5-carboxamide] | 1.25 µM
NCCC(=O)N[C@H]1CC[C@H](NS(=O)(=O)c2ccc3c(c2)CC(=O)N3)CC1 [compound 449, 3-amino-N-((1r,4r)-4-((2-oxoindoline)-5-sulfonamido)cyclohexyl)propanamide] | > 100 µM
Cc1cc2cc(C(=O)N[C@H]3CC[C@H](N)CC3)ccc2[nH]1 [compound 520, N-((1r,4r)-4-aminocyclohexyl)-2-methyl-1H-indole-5-carboxamide] | > 50 µM
Cc1cc(C)c(C(=O)N[C@H]2CC[C@H](N)CC2)c(=O)[nH]1 [compound 324, N-((1r,4r)-4-aminocyclohexyl)-4,6-dimethyl-2-oxo-1,2-dihydropyridine-3-carboxamide] | > 100 µM

same assay, conditions: read-out: SMYD3 Biochem IC50 (μM)*

IC50 | Structure (SMILES)
> 100 µM | CC(NC(=O)c1cccc(S(C)(=O)=O)c1)C1CCN(C(=O)[C@H](C)N)CC1 (stereo partly drawn) [compound 149, N-(1-(1-(L-alanyl)piperidin-4-yl)ethyl)-3-(methylsulfonyl)benzamide]
> 100 µM | NCCC(=O)N[C@H]1CC[C@H](NC(=O)c2ncccn2)CC1 [compound 145, N-((1r,4r)-4-(3-aminopropanamido)cyclohexyl)pyrimidine-2-carboxamide]
> 100 µM | CC(NC(=O)c1ncccn1)C1CCN(C(=O)[C@H](C)N)CC1 (stereo partly drawn) [compound 144, N-(1-(1-(L-alanyl)piperidin-4-yl)ethyl)pyrimidine-2-carboxamide]
> 100 µM | CC(=O)Nc1ccc(S(=O)(=O)N2CCC(NC(=O)c3ccnn3C)CC2)cc1 [compound 7, N-(1-((4-acetamidophenyl)sulfonyl)piperidin-4-yl)-1-methyl-1H-pyrazole-5-carboxamide]
> 100 µM | Nc1nccnc1C(=O)N[C@H]1CC[C@H](N)CC1 [compound 153, 3-amino-N-((1r,4r)-4-aminocyclohexyl)pyrazine-2-carboxamide]
> 100 µM | NCCC(=O)N[C@H]1CC[C@H](NC(=O)c2cccnc2)CC1 [compound 142, N-((1r,4r)-4-(3-aminopropanamido)cyclohexyl)nicotinamide]

Continued, compound first:

Structure (SMILES) | IC50
O=C1Cc2cc(C(=O)NC3CCNCC3)cnc2N1 [compound 68, 2-oxo-N-(piperidin-4-yl)-2,3-dihydro-1H-pyrrolo[2,3-b]pyridine-5-carboxamide] | 86.1 µM
Cc1cc(C(=O)N[C@H]2CC[C@H](N)CC2)n(Cc2ccccc2)n1 [Cpd. No. 29, N-((1r,4r)-4-aminocyclohexyl)-1-benzyl-3-methyl-1H-pyrazole-5-carboxamide Hydrochloride] | 14 µM
CCc1cc(C(=O)N[C@H]2CC[C@H](N)CC2)ns1 [compound 17, N-((1r,4r)-4-aminocyclohexyl)-5-ethylisothiazole-3-carboxamide] | 13.5 µM
Cn1nc(O)cc1C(=O)N[C@H]1CC[C@H](N)CC1 [compound 67, N-((1r,4r)-4-ammocyclohexyl)-3-hydroxy-1-methyl-1H-pyrazole-5-carboxamide] | 129 µM
NCCC(=O)N[C@H]1CC[C@H](NC(=O)c2ccc3ccccc3n2)CC1 [compound 163, N-((1r,4r)-4-(3-aminopropanamido)cyclohexyl)quinoline-2-carboxamide] | > 100 µM
Cc1cc2[nH]c(C(=O)Nc3ccc(CN)cc3)cc2o1 [compound 81, N-(4-(aminomethyl)phenyl)-2-methyl-4H-furo[3,2-b]pyrrole-5-carboxamide] | 25.9 µM
COc1cc(C(=O)N[C@H]2CC[C@H](N)CC2)cc2c1OCC(=O)N2 [compound 85, N-((1r,4r)-4-aminocyclohexyl)-8-methoxy-3-oxo-3,4-dihydro-2H-benzo[b][1,4]oxazine-6-carboxamide] | 184 µM
O=C1Cc2cc(C(=O)NC[C@H]3CCNC3)ccc2N1 [compound 101, (S)-2-oxo-N-(pyrrolidin-3-ylmethyl)indoline-5-carboxamide] | 25.4 µM

From patent US10266526B2, “Substituted 1,2,3-triazoles as SMYD inhibitors for treating cancer” (EPIZYME, INC., priority 2014, dated 2019)
